Source: BigSolDB 2.1

O=C(CN1C(=O)S/C(=C\c2ccc(Cl)cc2)C1=O)N1CCN(CC(O)(Cn2cncn2)c2cc(F)ccc2F)CC1 (stereo not given)
solubility (mole fraction)
Settings	293.15 K	298.15 K	303.15 K	308.15 K	313.15 K
in ethanol	0.000161	0.0002	0.000254	0.000312	0.000377
in n-hexane	2.34e-06	3.14e-06	4.1e-06	5.16e-06	6.28e-06
in n-octanol	0.00047	0.000578	0.000723	0.000882	0.00115
